According to US10000510B2, “Salt forms of ceftolozane” (Merck Sharp & Dohme Corp., priority 2014, dated 2018):
Structures can show the parent of a compound that is named as a salt.

Columns and labels:
Format in all cases: physicochemical
[1] = Stability of ceftolozane salts at 40° C. and 75% RH for one week, loss of purity by HPLC; details: 40° C. and 75% relative humidity, one week (7 days), initial purity minus purity after storage
Protocol: (§1) The ceftolozane salt forms provided herein can also be evaluated for stability upon exposure to high temperatures and humidity. The stability evaluation of the ceftolozane salts can be carried out by HPLC analysis using, for example, the method described in Example 1. For examples, the ceftolozane salt forms can be subjected to 40° C. and 75% relative humidity (RH) for one week (7 days) or, 25° C. and 60% relative humidity (RH) for two weeks or for four weeks. The purity and loss of purity (LOP) of these samples can be evaluated by measuring the amount of ceftolozane by HPLC (e.g., Example 1). The results of the stability analysis are summarized in the following Table B: Unless otherwise indicated herein, the HPLC method of Example 1 was used to measure ceftolozane purity disclosed herein. The loss of purity (LOP) was calculated as the difference between the initial ceftolozane purity and the ceftolozane purity after being subject to the conditions of the stability test (e.g., at 40° C. and 75% relative humidity (RH) for one week), wherein the purity was measured using the HPLC method described below. Standards and samples are prepared in 50 mM sodium perchlorate monohydrate, pH 4.00. A quantitation standard (Standard Solution 1) and check standard (Standard Solution 2) are both prepared at the target working concentration of 0.3 mg/mL taking into consideration the potency, as-is of the standard. The samples are prepared at the target active concentration of 0.3 mg/mL by preparing a sample at 0.04% (w/v). [table]

[2] = Stability of ceftolozane salts at 25° C. and 60% RH for two or four weeks, loss of purity by HPLC; details: 25° C. and 60% relative humidity; for 4 w, Loss of Purity: four weeks; for 2 w, Loss of Purity: two weeks (14 days)
Protocol: as §1

[3] = Dry stability of lyophilized ceftolozane zwitterion/stabilizing agent compositions at 40° C./75% RH, purity by HPLC; details: lyophilized solid
Protocol: The following HPLC method was used to measure ceftolozane purity disclosed in Examples 13 through 15.
HPLC conditions for Ceftolozane Purity:
Mobile Phase A: 50 mM Sodium Perchlorate, pH 2.5
Mobile Phase B: 20% ACN in 63 mM Sodium Perchlorate, pH 2.5
Column: Phenomenex Develosil ODS-UG-5, 5 μm, 250 mm×4.6 mm
Sample Solution: 1 mg/mL in water
Active ceftolozane zwitterion (“Cef”; 1620 mg; 2.1 mmol) and sodium chloride (122 mg; 2.1 mmol) were dissolved in 8.25 mL of sterile water to obtain pale yellowish solution. Aliquoted the complex solution to 5-mL freeze drying vials (0.45 mL per vial, 18 vials in total) which were positioned in a lyophilization tray. The key lyophilization conditions included freezing at −50° C. to −55° C. for 2 hours, primary drying at −30° C., 50 millitorrs for 40 hours, secondary drying at 20° C., 50 millitorrs for 7 hours, and storing at 5° C., 600 millitorrs until harvesting. The sublimate was condensed at −60° C. The freeze drying vials were harvested, inserted with proper stoppers, sealed with crimp seals, and labeled as Cef:NaCl(1:1) for dry stability evaluation at 40° C./75% RH. The vials were stored at 40° C. and 75% relative humidity (RH).
The following compositions were prepared analogously: ceftolozane zwitterion and sodium chloride (1:0.5) complex, ceftolozane zwitterion and sodium chloride (1:2) complex, ceftolozane zwitterion and sodium sulfate (1:1) complex, ceftolozane zwitterion and sodium sulfate (1:0.5) complex, ceftolozane zwitterion and sodium sulfate (1:2) complex, ceftolozane zwitterion and calcium chloride (1:1) complex, ceftolozane zwitterion and calcium chloride (1:0.5) complex, ceftolozane zwitterion and calcium chloride (1:2) complex, ceftolozane zwitterion and magnesium chloride (1:1) complex, ceftolozane zwitterion and magnesium chloride (1:0.5) complex, ceftolozane zwitterion and magnesium chloride (1:2) complex.
These compositions and ceftolozane zwitterion alone were evaluated for stability at 40° C./75% RH by HPLC. The dry samples were dissolved in water for loading onto the column.

[4] = listed as phosphate salt of ceftolozane

| 1 w, Loss of Purity [1] | 4 w, Loss of Purity [2] | 2 w, Loss of Purity [2] | Compound | other results |
| --- | --- | --- | --- | --- |
| 7.5% | 2.9% | 1.0% | Cn1c(N)c(NC(=O)NCCN)c[n+]1CC1=C(C(=O)O)N2C(=O)[C@@H](NC(=O)/C(=N\OC(C)(C)C(=O)O)c3nsc(N)n3)[C@H]2SC1 [Ceftolozane chloride, ceftolozane chloride] | 1 w, Loss of Purity ([1]; listed as chloride salt of ceftolozane): 7.5% |
| 13.3% | 2.3% | 0.4% | ceftolozane bromide | 2 w, Loss of Purity ([2]; listed as bromide salt of ceftolozane): 0.4% |
| 22.6% | 5.8% | 3.5% | ceftolozane ketoglutarate | – |
| 9.3% | 5.2% | 3.6% | ceftolozane maleate | – |

The next lines start with the compound.

| Compound | 1 w, Loss of Purity [1] | 4 w, Loss of Purity [2] | 2 w, Loss of Purity [2] | other results |
| --- | --- | --- | --- | --- |
| Cn1c(N)c(NC(=O)NCCN)c[n+]1CC1=C(C(=O)O)N2C(=O)[C@@H](NC(=O)/C(=N\OC(C)(C)C(=O)O)c3nsc(N)n3)[C@H]2SC1 [Ceftolozane sulfate, 5-amino-4-{[(2-aminoethyl)carbamoyl]amino}-2-{[(6R,7R)-7-({(2Z)-2-(5-amino-1,2,4-thiadiazol-3-yl)-2-[(1-carboxy-1-methylethoxy)imino]acetyl}amino)-2-carboxy-8-oxo-5-thia-1-azabicyclo[4.2.0]oct-2-en-3-yl]methyl}-1-methyl-1H-pyrazolium monosulfate, reference compound] | 22.4% | 5.1% | 1.2% | – |
| Cn1c(N)c(NC(=O)NCCN)c[n+]1CC1=C(C(=O)[O-])N2C(=O)[C@@H](NC(=O)/C(=N\OC(C)(C)C(=O)O)c3nsc(N)n3)[C@H]2SC1 [Ceftolozane zwitterion, (6R,7R)-3-[(5-amino-4-{[(2-aminoethyl)carbamoyl]amino}-1-methyl-1H-pyrazol-2-ium-2-yl)methyl]-7-({(2Z)-2-(5-amino-1,2,4-thiadiazol-3-yl)-2-[(1-carboxy-1-methylethoxy)imino]acetyl}amino)-8-oxo-5-thia-1-azabicyclo[4.2.0]oct-2-ene-2-carboxylate] | 14.4% | 7.4% | 3.6% | % purity of Ceftolozane, 3 day ([3]; 3 day at 40° C./75% RH): 88.0%; % purity of Ceftolozane, 7 day ([3]; 7 day at 40° C./75% RH): 84.5%; % purity of Ceftolozane, 14 day ([3]; 14 day at 40° C./75% RH): 77.9%; % purity of Ceftolozane, T0 ([3]; T0 (start of storage at 40° C./75% RH)): 92.6% |
| ceftolozane edisylate | 9.6% | 1.7% | 1.5% | 4 w, Loss of Purity ([2]; listed as edisylate salt of ceftolozane): 1.7% |
| ceftolozane mesylate | 8.3% | 4.3% | 1.3% | – |
| ceftolozane phosphate | 30.9% | 13.7% | 4.5% | 1 w, Loss of Purity [1, 4]: 30.9%; 4 w, Loss of Purity [2, 4]: 13.7%; 2 w, Loss of Purity [2, 4]: 4.5% |
